“Also recorded” adds a separate entry of the source. Like-named read-outs stand apart in the source and are kept apart here. *1 amine or outer side, *2 acyl side, *3 side chain or, on linkers, in order; H or OH if unused. Where a SMILES comes first, the peptide text is derived from it. Bridges are numbered along the chain shown (N, C = ends). Roman numbers before positions name the chains, in order. [ ]: non-standard residue; d: D form. Actinocin(9to1) = Cc1c2oc3c(C)ccc(C(=O)[*:1])c3nc-2c(C(=O)[*:2])c(N)c1=O; NMeV = CN[C@H](C(=O)O)C(C)C; Sar = CNCC(=O)O
Tests used:
[1] = tested on: primary rat hippocampal neurons; details: for effect on Elk-1 induced cell death: Elk-1 GFP mRNA photoporated into dendrites
Description: Cultured primary rat hippocampal neurons were bathed in 10-15 μg capped mRNA in 1 ml extracellular saline at 37° C. In some cases, neurons were pre-incubated with the translation inhibitor, anisomycin (5 μM), the mitochondrial PTP inhibitor, bongkrekic (BKA; 25 μM), or the transcriptional inhibitor, actinomycin D (1 μg/ml).
Samples were imaged and photoporated using a Prairie Ultima multiphoton scan head attached to an Olympus BX61 fixed-stage upright microscope equipped with a 40× water immersion lens (LUMPlanFI/IR, N.A. 0.8). 8 to 16 points were selected over a 2 μm×2 μm area for photoporation. A Ti-sapphire laser (Mai-Tai®, Spectral-Physics, Mountain View, Calif.) was used to make transient poration sites for 5 milliseconds at 30 mW (at back aperture of lens) energy. After photoporation, samples were transferred to an Olympus IX81 inverted microscope for simultaneous GFP fluorescence and DIC imaging. All images were processed with Metamorph (Universal Imaging Corporation) image processing software. For cell death assays, a LIVE/DEAD cell viability/cytotoxicity kit (Molecular Probes) was used according to the manufacturer's instructions.
A cell viability/cytotoxicity assay (Invitrogen Molecular Probes, Carlsbad, Calif.) was used to confirm the morphological observations of cell death following Elk-1 GFP mRNA photoporation. […] Obvious morphological signs of cell death may take hours to become apparent, whereas the use of a nuclear dye allows rapid identification of neurons that are in the process of dying.

[2] = tested on: primary rat hippocampal neurons; test: Elk-1 immunocytochemistry after mGluR stimulation; format: cell-based; details: 30-minute application, 50 μM, n=7
Description: Immunocytochemistry/immunohistochemistry: Three polyclonal antibodies raised against Elk-1 (Santa Cruz Biotechnology, Santa Cruz, Calif.; Cell Signaling Technology, Beverly, Mass.) were used to detect Elk-1 protein in primary rat hippocampal cultures and in adult rat brain sections. A monoclonal antibody raised against a synthetic phospho-peptide of Elk-1 was used to detect Elk-1 protein phosphorylated at S383 (Cell Signaling Technology). […] For stimulation experiments, cultured neurons were placed in warm Hals buffer (pH=7.4) and treated with the Group I mGluR agonist, dihydrophenylglycine (DHPG; Tocris Cookson Inc., Ellisville, Mo.) at a final concentration of 50 μM for 30 minutes at 37° C. prior to fixation and immunocytochemistry.

[3] = tested on: primary rat corticol neurons; test: Elk-1 association with mitochondria, Western blotting of mitochondrial fractions; format: cell-based; details: Western blotting after drug application
Description: Mitochondrial fractionation for western blots: A mitochondrial isolation kit (Pierce) was used according to the manufacturer's instructions to isolate mitochondria from primary neuronal cultures. Once isolated, mitochondria were lysed in buffer containing: 150 mM NaCl, 1% NP-40, 0.5% Deoxycholic acid, 0.1% SDS, 50 mM Tris, 10 ug/mL Aprotinin, 5 ug/mL Leupeptin, 1 mM sodium orthovanidate, 1 mM PMSF and 100 ug/mL TPCK. Lysate was then used for western blotting with the following antibodies: Elk-1 (Cell Signaling Technology), VDAC 1 (Santa Cruz Biotechnology), NeuN (Abcam).
To examine whether specific cellular insults could increase or decrease the association between Elk-1 and mitochondria, primary rat corticol neurons were exposed to a variety of compounds known to induce cell death in neurons, and mitochondrial fractions were then isolated and used for Western blotting.

[4] = tested on: primary rat hippocampal neurons; test: DAPI and Hoechst nuclear stains for pycnotic nuclei; format: cell-based; details: cells treated for 3 hours with 30 μM
Description: FIG. 5A is a graph depicting cell counts after Elk-1 over-expression. Neurons electroporated with Elk-1 in a pcDNA vector were stained with a MAP2 antibody at 48, 72, 96 and 168 hours after plating. Two 5× images of MAP2 immunoreactive neurons were taken for each experiment, and MAP2 positive neurons were counted manually. Shown are the percent decreases in MAP2 positive neurons compared to control. (Line=best fit) FIG. 5B are images of MAP2 immunoreactivity from neurons electroporated with a control pcDNA vector (right image) or with Elk-1 in pcDNA (left image). FIG. […] Scale bar=20 μm.
In order to assess whether neurons were dying via apoptosis or necrosis following Elk-1 over-expression, DAPI and Hoechst nuclear stains were used to look for evidence of pycnotic nuclei, characteristic of an apoptotic phenotype.

CO[C@H](C/C=C\C=C\CC/C=C/C[C@H](C)/C=C/C(=C\C(=O)O)CC(=O)O)/C(C)=C\C=C(/C)C(=O)O [BKA, bongkrekic acid]
effect on Elk-1 induced cell death ([1]; pre-incubation with mitochondrial PTP inhibitor 25 μM, n=10): blocked; also recorded: cells did not die

N[C@H](C(=O)O)c1cc(O)cc(O)c1 [DHPG, dihydrophenylglycine]
Elk-1 immunoreactivity in both cell somas and dendrites [2]: substantial increase

Cc1c2oc3c(C)ccc(C(=O)N[C@@H]4C(=O)N[C@H](C(C)C)C(=O)N5CCC[C@H]5C(=O)N(C)CC(=O)N(C)[C@@H](C(C)C)C(=O)O[C@@H]4C)c3nc-2c(C(=O)N[C@@H]2C(=O)N[C@H](C(C)C)C(=O)N3CCC[C@H]3C(=O)N(C)CC(=O)N(C)[C@@H](C(C)C)C(=O)O[C@@H]2C)c(N)c1=O [actinomycin D] (I: T[dV]P[Sar][NMeV] / II: T[dV]P[Sar][NMeV]; ester I:1-I:C, II:1-II:C; linker I:N-II:N via Actinocin(9to1))
effect on Elk-1 induced cell death ([1]; pre-incubation with transcriptional inhibitor 1 μg/ml, n=7): inhibited

COc1ccc(C[C@H]2NC[C@H](O)[C@H]2OC(C)=O)cc1 [anisomycin]
effect on Elk-1-induced cell death ([1]; pre-incubation with translational inhibitor 5 μM, Elk-1 GFP mRNA photoporated): blocked; also recorded: absence of cell death

CC[C@@]1(O)C(=O)OCc2c1cc1n(c2=O)Cc2cc3ccccc3nc2-1 [camptothecin]
Elk-1 association with mitochondria [3]: increased its association with mitochondria
pycnotic nuclei [4]: presence of pycnotic nuclei
